What was measured:
[1] = HPLC analysis of concentration and degradation of Compound 11 in mineral oil mixtures after ball milling agitation; format: physicochemical
Description: The following HPLC method was used to analyze whether the concentration of fluorescent molecular rotor compounds in mixtures of mineral oil and Compound 11 was consistent with the expected concentration of the mixture. The HPLC analysis was also used to evaluate degradation of Compound 11 in the mixture. The HPLC instrument used was a Waters 2695 Separation Module, or equivalent containing a pump capable of delivering a gradient flow rate of 1.0 mL/min or equivalent and a Waters 2487 Multiwavelength Detector, or dual wavelength detector capable of detection at 215 nm and 320 nm, or equivalent. The column used was a Waters Deltapak C18 column, 5 μm, 3.9×150 mm, (Waters Corp., Milford, Mass., Catalog No.: WAT011793). The flow rate was 1.0 mL/min with detection at a wavelength of 215 nm and a column temperature of 25° C. The injection volume used for the concentration sample evaluation was 20 μL and for the related substances sample evaluation was 50 μL. The mobile phases were A: 0.1% trifluoroacetic acid in water, C: methanol, and D: ethanol, and the gradient program shown in Table 2 was used for the HPLC method.
In a mixture sample compared to a standard sample, increased relative peak area of the related substance peak (RT of 3.8 min, Table 3) compared to the peak area of Compound 11 (RT of 8.5 min, Table 3) would indicate degradation of Compound 11. The concentration in the mixture sample of Compound 11 was determined by analyzing the HPLC peak with a retention time of 8.5 min (Table 3) compared to a standard sample of Compound 11.
However, the concentration of the mixture of Compound 11 and heavy mineral oil after ball milling agitation with YTZ® grinding media beads of an average diameter of 0.5 mm was determined by HPLC (RT of 8.5 min, Table 3) to be 4.75 mg/g as compared to an expected concentration of 48.12 mg/g (504.3 mg/10.48 g, mineral oil and Compound 11). […] The concentration as measured by HPLC of the mixture of Compound 11 and heavy mineral oil after ball milling agitation with beads of an average diameter of 5 mm was 44.9 mg/g as compared to an expected concentration of 47.98 mg/g (504.8 mg/10.52 g, mineral oil and Compound 11), which was within the acceptable range.

[2] = Microscopic examination of mixture after ball milling agitation (particle size, uniformity); format: physicochemical; conditions: heavy mineral oil, ball milling with 5 mm grinding media beads
Description: Microscopic examination of mixtures after ball milling can be used to assess uniformity and to estimate the particle size of the fluorescent molecular rotor compounds. Microscopic examination of the mixtures containing Compound 11 were performed using a compound optical microscope with a calibrated eyepiece micrometer, or reticle. For example, the eyepiece micrometer, reticle, can be aligned and calibrated with the stage micrometer by aligning the zero line of the reticle with the zero line of the stage micrometer, and the ratios between the micrometers or scales can be used to determine sizes and distances.

concentration of the mixture determined by HPLC ([1]; heavy mineral oil, ball milling with YTZ beads of average diameter 0.5 mm, expected 48.12 mg/g): 4.75 mg/g
concentration of the mixture measured by HPLC ([1]; heavy mineral oil, ball milling with beads of average diameter 5 mm, expected 47.98 mg/g): 44.9 mg/g
degradation of Compound 11 based on changes in the related substance peak (RT 3.8 min) ([1]; mixture in heavy mineral oil, after ball milling agitation, HPLC): no significant degradation
degradation of Compound 11 as analyzed by HPLC ([1]; mixture in heavy mineral oil, ball milling agitation with YTZ 5 mm beads): without degradation
particle diameter by microscopic examination [2]: approximately 5 microns
SMILES: COCCOCCOCCOC(=O)/C(C#N)=C/c1ccc2cc(N3CCCCC3)ccc2c1 [Compound 11]

— US10350309B2, “Methods of preparing ophthalmic formulations and uses of same” (Cognoptix, Inc., priority 2013, dated 2019)
